Data reported in ChEMBL document CHEMBL1201862, “PubChem BioAssay data set” (2004).
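Cultured in 96-well plates, cells were exposed to test compound for 48 hours across five concentrations. The concentration for 50% growth inhibition is given as GI50.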 Activity calls are given as the source filed them. No stated cut-off is given here; in the data, active = GI50 up to about 1.1 µM and inactive = higher.

How the values were obtained:
Assay in all cases: NCI anticancer screen, dose series, 48 h
786-0 = test system: 786-0
A549 = test system: A549
ACHN = test system: ACHN
BT-549 = test system: BT-549
CAKI-1 = test system: CAKI-1
CCRF-CEM = test system: CCRF-CEM
COLO 205 = test system: COLO 205
DU-145 = test system: DU-145
EKVX = test system: EKVX
HCT-116 = test system: HCT-116
HCT-15 = test system: HCT-15
HL-60 = test system: HL-60
HOP-62 = test system: HOP-62
HT-29 = test system: HT-29
IGROV-1 = test system: IGROV-1
K562 = test system: K562
KM12 = test system: KM12
LOX IMVI = test system: LOX IMVI
M14 = test system: M14
MCF7 = test system: MCF7
MDA-MB-231 = test system: MDA-MB-231
MDA-MB-435 = test system: MDA-MB-435
MDA-N = test system: MDA-N
MOLT-4 = test system: MOLT-4
Malme-3M = test system: Malme-3M
NCI-H226 = test system: NCI-H226
NCI-H23 = test system: NCI-H23
NCI-H522 = test system: NCI-H522
NCI/ADR-RES = test system: NCI/ADR-RES
OVCAR-3 = test system: OVCAR-3
OVCAR-5 = test system: OVCAR-5
OVCAR-8 = test system: OVCAR-8
PC-3 = test system: PC-3
RPMI-8226 = test system: RPMI-8226
RXF 393 = test system: RXF 393
SF-268 = test system: SF-268
SF-295 = test system: SF-295
SF-539 = test system: SF-539
SK-MEL-28 = test system: SK-MEL-28
SK-MEL-5 = test system: SK-MEL-5
SK-OV-3 = test system: SK-OV-3
SN12C = test system: SN12C
SNB-19 = test system: SNB-19
SNB-75 = test system: SNB-75
SR = test system: SR
SW-620 = test system: SW-620
T47D = test system: T47D
TK-10 = test system: TK-10
U-251 = test system: U-251
UACC-257 = test system: UACC-257
UACC-62 = test system: UACC-62
UO-31 = test system: UO-31

CN1CN(c2ccccc2)C2(CCN(CC(C)(c3ccc(F)cc3)C3OCCCO3)CC2)C1=O (centres undefined)
GI50 (786-0): 20.4 µM (inactive) | GI50 (A549): 25.9 µM (inactive) | GI50 (ACHN): 17.7 µM (inactive) | GI50 (BT-549): 5.31 µM (inactive) | GI50 (CAKI-1): 19.7 µM (inactive) | GI50 (CCRF-CEM): 13 µM (inactive) | GI50 (COLO 205): 17.7 µM (inactive) | GI50 (DU-145): 27.6 µM (inactive) | GI50 (EKVX): 16.7 µM (inactive) | GI50 (HCT-116): 14.9 µM (inactive) | GI50 (HCT-15): 15.3 µM | GI50 (HL-60): 14.7 µM (inactive) | GI50 (HOP-62): 16.6 µM (inactive) | GI50 (HT-29): 10.6 µM (inactive) | GI50 (IGROV-1): 18.5 µM (inactive) | GI50 (K562): 13.2 µM (inactive) | GI50 (KM12): 15.5 µM (inactive) | GI50 (LOX IMVI): 17.5 µM (inactive) | GI50 (M14): 16.9 µM (inactive) | GI50 (MCF7): 13 µM (inactive) | GI50 (MDA-MB-231): 24.2 µM (inactive) | GI50 (MDA-MB-435): 10.9 µM (inactive) | GI50 (MDA-N): 17.3 µM (inactive) | GI50 (MOLT-4): 9.71 µM (inactive) | GI50 (Malme-3M): 15.6 µM (inactive) | GI50 (NCI-H226): 18.9 µM (inactive) | GI50 (NCI-H23): 14.9 µM (inactive) | GI50 (NCI-H522): 16.8 µM (inactive) | GI50 (NCI/ADR-RES): 12.9 µM (inactive) | GI50 (OVCAR-3): 11.5 µM (inactive) | GI50 (OVCAR-5): 8.69 µM (inactive) | GI50 (OVCAR-8): 19.4 µM (inactive) | GI50 (PC-3): 17.4 µM (inactive) | GI50 (RPMI-8226): 10.2 µM (inactive) | GI50 (RXF 393): 19.7 µM (inactive) | GI50 (SF-268): 17.8 µM (inactive) | GI50 (SF-295): 18.4 µM (inactive) | GI50 (SF-539): 13.2 µM (inactive) | GI50 (SK-MEL-28): 16.8 µM (inactive) | GI50 (SK-MEL-5): 15.7 µM (inactive) | GI50 (SK-OV-3): 26.4 µM (inactive) | GI50 (SN12C): 18.1 µM (inactive) | GI50 (SNB-19): 17.3 µM (inactive) | GI50 (SNB-75): 18.7 µM (inactive) | GI50 (SR): 10 µM (inactive) | GI50 (SW-620): 20.6 µM (inactive) | GI50 (T47D): 17.7 µM (inactive) | GI50 (TK-10): 15.5 µM (inactive) | GI50 (U-251): 12.8 µM (inactive) | GI50 (UACC-257): 16 µM (inactive) | GI50 (UACC-62): 17.9 µM (inactive) | GI50 (UO-31): 2.32 µM (inactive)

CCN1CN(c2ccccc2)C2(CCN(CCCSc3ccc(F)cc3)CC2)C1=O
GI50 (786-0): 13.7 µM (inactive) | GI50 (A549): 6.12 µM (inactive) | GI50 (ACHN): 4.7 µM (inactive) | GI50 (BT-549): 8.61 µM (inactive) | GI50 (CAKI-1): 12 µM (inactive) | GI50 (CCRF-CEM): 4.24 µM (inactive) | GI50 (COLO 205): 2.41 µM (inactive) | GI50 (DU-145): 4.65 µM (inactive) | GI50 (EKVX): 4.89 µM (inactive) | GI50 (HCT-116): 4.36 µM (inactive) | GI50 (HCT-15): 11 µM | GI50 (HL-60): 10.8 µM (inactive) | GI50 (HOP-62): 4.31 µM (inactive) | GI50 (HT-29): 3.36 µM (inactive) | GI50 (IGROV-1): 5.3 µM (inactive) | GI50 (K562): 12.9 µM (inactive) | GI50 (KM12): 14.3 µM (inactive) | GI50 (LOX IMVI): 14.3 µM (inactive) | GI50 (M14): 6.75 µM (inactive) | GI50 (MCF7): 3.48 µM (inactive) | GI50 (MDA-MB-231): 12.7 µM (inactive) | GI50 (MDA-MB-435): 12.8 µM (inactive) | GI50 (MDA-N): 11.7 µM (inactive) | GI50 (MOLT-4): 4.88 µM (inactive) | GI50 (Malme-3M): 19.9 µM (inactive) | GI50 (NCI-H226): 16.8 µM (inactive) | GI50 (NCI-H23): 10.4 µM (inactive) | GI50 (NCI-H522): 15 µM (inactive) | GI50 (NCI/ADR-RES): 12.2 µM (inactive) | GI50 (OVCAR-3): 13.9 µM (inactive) | GI50 (OVCAR-5): 5.19 µM (inactive) | GI50 (OVCAR-8): 14.8 µM (inactive) | GI50 (PC-3): 11.8 µM (inactive) | GI50 (RPMI-8226): 10.1 µM (inactive) | GI50 (RXF 393): 12.9 µM (inactive) | GI50 (SF-268): 13.9 µM (inactive) | GI50 (SF-295): 13 µM (inactive) | GI50 (SF-539): 9.4 µM (inactive) | GI50 (SK-MEL-28): 17.3 µM (inactive) | GI50 (SK-MEL-5): 2.82 µM (inactive) | GI50 (SK-OV-3): 15.8 µM (inactive) | GI50 (SN12C): 8.47 µM (inactive) | GI50 (SNB-19): 10.1 µM (inactive) | GI50 (SNB-75): 16.4 µM (inactive) | GI50 (SR): 11.8 µM (inactive) | GI50 (SW-620): 7.29 µM (inactive) | GI50 (T47D): 3.26 µM (inactive) | GI50 (TK-10): 12.7 µM (inactive) | GI50 (U-251): > 10 µM (inactive) | GI50 (UACC-257): 6.11 µM (inactive) | GI50 (UACC-62): 15.1 µM (inactive) | GI50 (UO-31): 5.97 µM (inactive)
